The values that follow come from paper PMC10665444, “Unveiling the potential role of natriuretic peptide receptor a isoforms in fine-tuning the cGMP production and tissue-specific function” (Scientific Reports, 2023).

Assay [1] concerns NPR-A isoform 1. Briefly: Whole-cell cGMP assay (competitive ELISA), DLD-1 cells transfected with NPR-A isoform 1 alone. The class given is cell-based, rat. The conditions noted are these: IBMX 0.5 mM 30 min, then peptide 30 min. An excerpt:
(§1) A plasmid containing rat NPR-A in a pCMV-4 backbone, gifted by Dr. Ruey-Bing Yang (Academia Sinica), was used as the NPR-A template. All three receptor isoforms plasmids were created by modifying the NPR-A sequence in the template plasmid using Site-Directed Mutagenesis (SDM) following the protocol from the Q5® Site-Directed Mutagenesis kit. All plasmids were cloned and expanded in NEB 5 α competent cells. DNA sequencing was done to confirm the success of the SDM. Primers used to clone isoform 1 are 5’—tga ccc tga gtg ggg gca acc ttg tgg c—3’ and 5’—gcc aca agg ttg ccc cca ctc agg gtc a—3’. primers used to clone isoform 2 are 5’ –gac ggg tgc ctt cag gcc ctg cca ggt tgt cct gaa cta ta—3’ and 5’ –tat agt tca gga caa cct ggc agg gcc tga agg cac ccg tc—3’. Primers used to clone isoform 3 are 5’—gtg gag gat ggc ctg gca gtg aca gag act—3’ and 5’—agt ctc tgt cac tgc cag gcc atc ctc cac—3’.
(§2) DLD-1 cells were cultured in complete RPMI-1640 medium supplemented with 10% HI-FBS and 1% Penicillin–Streptomycin (P/S). Cells were sub-cultured every 3 days using trypsinization. […]
(§3) Cells were transfected following the transfection protocol above and incubated for another 16 h overnight. […] Total protein content of three wells were determined using Bicinchoninic acid assay and used for normalizing across the different 24-well plates. Expression of the receptors in 3 wells were determined using Western blotting.
(ELISA stands for enzyme-linked immunosorbent assay.)

The subject of assay [2] is NPR-A isoform 2. As to the kind of experiment: Whole-cell cGMP assay (competitive ELISA), DLD-1 cells transfected with NPR-A isoform 2 alone. The class given is cell-based, rat. The conditions noted are these: IBMX 0.5 mM 30 min, then peptide 30 min.
Source text: as §1, §2, §3

In assay [3] the test system is NPR-A isoform 3. Briefly: Whole-cell cGMP assay (competitive ELISA), DLD-1 cells transfected with NPR-A isoform 3 alone. The class given is cell-based, rat. The conditions noted are these: IBMX 0.5 mM 30 min, then peptide 30 min.
Source text: as §1, §2, §3

The test system of assay [4] is WT NPR-A co-transfected with isoform 1. Briefly: Whole-cell cGMP assay, DLD-1 cells co-transfected with WT NPR-A and isoform 1. The assay is classed as cell-based, rat. The settings on record: peptide 30 min, ELISA, triplicates.
Source text: as §1, §2, §3

Assay [5] deals with WT NPR-A co-transfected with isoform 2. Briefly: Whole-cell cGMP assay, DLD-1 cells co-transfected with WT NPR-A and isoform 2. The assay is classed as cell-based, rat. The conditions noted are these: peptide 30 min, ELISA, triplicates.
Source text: as §1
(§4) DLD-1 cells were cultured in complete RPMI-1640 medium supplemented with 10% HI-FBS and 1% Penicillin–Streptomycin (P/S). Cells were sub-cultured every 3 days using trypsinization. DLD-1 cells (0.2 million) were seeded per well in 24-well plates to attain near 70% confluent before transfection was performed following the manufacturer’s protocol. Plasmids of interest was incubated with lipofectamine 3000 in a 1:1 ratio before the mixture was added to the cells. For single transfection, 0.8 μ g of the plasmid of interest was used. For co-transfection, the NPR-A WT plasmid was fixed at 0.8 μ g and the receptor isoforms were mixed with the WT plasmid according to their given percentages. For 1% co-transfection, 0.8 μ g of NPR-A WT plasmid was mixed with 0.00808 μ g of receptor isoforms. […]
as §3

The test system of assay [6] is WT NPR-A co-transfected with isoform 3. As to the kind of experiment: Whole-cell cGMP assay, DLD-1 cells co-transfected with WT NPR-A and isoform 3. The class given is cell-based, rat. The settings on record: peptide 30 min, ELISA, triplicates.
Source text: as §1, §4, §3

In assay [7] the test system is WT NPR-A co-transfected with receptor isoforms. As to the kind of experiment: Whole-cell cGMP assay, DLD-1 cells co-transfected with WT NPR-A and isoforms (statements over more than one isoform). The conditions noted are these: 1% co-transfection of isoform 1 and 2. The assay is classed as cell-based, rat.
Source text: as §1, §2, §3

The subject of assay [8] is NPR-A. The settings on record: compared with the vasodilatory analogue (DRD-ANP); cited from earlier work. An excerpt: We evaluated the roles of three distinct amino acid residues found within the K-ring and the C-terminal and identified the residues that are responsible for these functions. […] The separation of diuretic and hemodynamic bioactivity in DRD-ANP and D ...

In assay [9] the test system is NPR-A. The settings on record: ANP compared with BNP; cited from earlier work. An excerpt: They interact with three NP receptors (NPRs), namely NPR-A, NPR-B and NPR-C. Lack of NPs or their receptors have been associated with hypertension and heart failure.

In the case of `CC[C@H](C)[C@@H]1NC(=O)[C@H](CCCNC(=N)N)NC(=O)[C@H](CC(=O)O)NC(=O)[C@H](CCSC)NC(=O)[C@H](CCCNC(=N)N)NC(=O)CNC(=O)CNC(=O)[C@H](Cc2ccccc2)NC(=O)[C@@H](NC(=O)[C@H](CO)NC(=O)[C@H](CO)NC(=O)[C@H](CCCNC(=N)N)NC(=O)[C@H](CCCNC(=N)N)NC(=O)[C@H](CC(C)C)NC(=O)[C@@H](N)CO)CSSC[C@@H](C(=O)N[C@@H](CC(N)=O)C(=O)N[C@@H](CO)C(=O)N[C@@H](Cc2ccccc2)C(=O)N[C@@H](CCCNC(=N)N)C(=O)N[C@@H](Cc2ccc(O)cc2)C(=O)O)NC(=O)CNC(=O)[C@H](CC(C)C)NC(=O)CNC(=O)[C@H](CO)NC(=O)[C@H](CCC(N)=O)NC(=O)[C@H](C)NC(=O)CNC1=O` [ANP, Atrial natriuretic peptide], the “cGMP production (result in words)” value in [1], in assay [2] and in assay [3] was “no cGMP production was observed” in each case. Moreover, the “decrease in cGMP production of WT NPR-A” value in assay [4] (1% co-transfection with isoform 1) is reported as “approximately 10.6%”; in assay [4] (50% co-transfection with isoform 1), 87.4%; in [5] (1% co-transfection with isoform 2), 8.0%; in assay [5] (10% co-transfection with isoform 2) it was 69.8%; in assay [5] (50% co-transfection with isoform 2) it was 84.1%; in [6] (1% co-transfection with isoform 3) it was 22.6%. In addition, the “decrease in cGMP production of WT NPR-A” value in assay [6] (10% co-transfection with isoform 3) amounted to 54.3%; in assay [6] (50% co-transfection with isoform 3), 86.2%. In addition, the “reduction in cGMP production (range over isoforms 1 and 2)” value in [7] is given as 8–10.6%. Also, the “rate of cGMP production (in words)” value in assay [8] was “produce cGMP much faster than the vasodilatory analogue (DRD-ANP)”. The “binding affinity for NPR-A (in words)” value in assay [9] was “stronger binding affinity than BNP”.
